{
  "source": "patent US11000601B2",
  "about": "“Conjugated biological molecules, pharmaceutical compositions and methods” (OBI Pharma, Inc., priority 2016, dated 2021)",
  "system": "HPAC tumor cells (ATCC CRL-2119) human pancreatic cancer",
  "test": "HPAC human pancreatic cancer xenograft model in male BALB/c nude mice: tumor volume, T/C, TGI",
  "type": "in vivo",
  "conditions": "for Tumor Volume (mm^3), Mean: group mean; for Tumor Volume (mm^3), Mean / Tumor Volume (mm^3): QW x 4, ADC (OBI-999) and OBI-888 10 mg/kg IV, MMAE 0.191 mg/kg IP; for Tumor Volume (mm^3): individual animals",
  "description": "The HPAC tumor cells (ATCC CRL-2119) were maintained in vitro as a monolayer culture in 1:1 mixture of Dulbecco's modified Eagle's medium and Ham's F12 medium containing 1.2 g/L sodium bicarbonate, 2.5 mM L-glutamine, 15 mM HEPES and 0.5 mM sodium pyruvate supplemented with 0.002 mg/mL insulin, 0.005 mg/mL transferrin, 40 ng/mL hydrocortisone, 10 ng/mL epidermal growth factor and 5% fetal bovine serum, 100 U/mL penicillin and 100 μg/mL streptomycin at 37° C. in an atmosphere of 5% CO2 in air. The tumor cells were routinely subcultured twice weekly by trypsin-EDTA treatment. The cells growing in an exponential growth phase were harvested and counted for tumor inoculation.\nThe endpoint was to determine the anti-tumor effects of testing compounds. Tumor size was measured twice weekly in two dimensions using a caliper, and the volume was expressed in mm^3 using the formula: V=0.5 a×b^2 where a and b are the long and short diameters of the tumor, respectively. The tumor size was then used for calculation of T/C values. The T/C value (in percent) is an indication of antitumor effectiveness; T and C are the mean volumes of the treated and control groups, respectively, on a given day. TGI was calculated for each group using the formula: TGI (%)=[1−(Ti−T0)/(Vi−V0)]×100; Ti is the average tumor volume of a treatment group on a given day, T0 is the average tumor volume of the treatment group on day 0, Vi is the average tumor volume of the vehicle control group on the same day with Ti, and V0 is the average tumor volume of the vehicle group on day 0.\nSummary statistics, including mean and the standard error of the mean (SEM), are provided for the tumor volume of each group at each time point. Statistical analysis of difference in the tumor volume among the groups were conducted on the data obtained at the best therapeutic time point after the final dose (the 37th day after grouping). A one-way ANOVA was performed to compare the tumor volume among groups, and when a significant F-statistics (a ratio of treatment variance to the error variance) was obtained, comparisons between groups were carried out with Games-Howell test, otherwise they were carried out with Dunnett (2 sided) test. […] All data were analyzed using SPSS 17.0. p<0.05 was considered to be statistically significant.",
  "key": {"[1]": {"conditions": "0.191 mg/kg IP once weekly for four weeks, single agent, Day 37"}},
  "note": "Values joined by “and” are separate entries in the source; they are usually repeats but may differ in a detail not shown here. Identical values can stand only once. Square brackets hold non-standard residues; d marks the D form. Peptide text beside a SMILES is read from it. * marks the point of attachment. Dolaproine = CO[C@@H]([C@@H]1CCCN1)[C@@H](C)C(=O)O; Dil = CC[C@H](C)[C@H](NC)[C@@H](CC(=O)O)OC; X1 = C[C@@H](N*)[C@@H](O)c1ccccc1; NMeV = CN[C@H](C(=O)O)C(C)C",
  "data": [
    {"compound": "CC[C@H](C)[C@@H]([C@@H](CC(=O)N1CCC[C@H]1[C@H](OC)[C@@H](C)C(=O)N[C@H](C)[C@@H](O)c1ccccc1)OC)N(C)C(=O)[C@@H](NC(=O)[C@@H](NC)C(C)C)C(C)C", "note": "[MMAE, monomethyl auristatin E] (H-[NMeV]V[Dil][Dolaproine]-X1)", "values": [
      {"measurement": "antitumor activity (in words)", "setting": "0.191 mg/kg IP once weekly for four weeks, single agent", "value": "minor antitumor activity"},
      {"measurement": "T/C", "setting": "[1]", "value": 75.8, "unit": "%"},
      {"measurement": "TGI", "setting": "[1]", "value": 25.2, "unit": "%"},
      {"measurement": "mean tumor size", "setting": "[1]", "value": "1,644 mm^3"},
      {"measurement": "Tumor Volume (mm^3), Mean", "setting": "Day 0", "value": 85, "unit": "mm^3"},
      {"measurement": "Tumor Volume (mm^3)", "setting": "Day 0", "value": "58 mm^3 and 53 mm^3 and 132 mm^3 and 72 mm^3 and 86 mm^3 and 116 mm^3 and 71 mm^3 and 91 mm^3"},
      {"measurement": "Tumor Volume (mm^3), Mean", "setting": "Day 3", "value": 114, "unit": "mm^3"},
      {"measurement": "Tumor Volume (mm^3)", "setting": "Day 3", "value": "128 mm^3 (2×) and 76 mm^3 and 148 mm^3 and 82 mm^3 and 158 mm^3 and 57 mm^3 and 137 mm^3"},
      {"measurement": "Tumor Volume (mm^3), Mean", "setting": "Day 7", "value": 134, "unit": "mm^3"},
      {"measurement": "Tumor Volume (mm^3)", "setting": "Day 7", "value": "104 mm^3 and 114 mm^3 and 177 mm^3 and 144 mm^3 and 97 mm^3 and 167 mm^3"},
      {"measurement": "Tumor Volume (mm^3), Mean", "setting": "Day 10", "value": 245, "unit": "mm^3"},
      {"measurement": "Tumor Volume (mm^3)", "setting": "Day 10", "value": "444 mm^3 and 196 mm^3 and 219 mm^3 and 160 mm^3 and 207 mm^3"},
      {"measurement": "Tumor Volume (mm^3), Mean", "setting": "Day 14", "value": 385, "unit": "mm^3"},
      {"measurement": "Tumor Volume (mm^3)", "setting": "Day 14", "value": "429 mm^3 and 418 mm^3 (2×) and 268 mm^3 and 390 mm^3"},
      {"measurement": "Tumor Volume (mm^3), Mean", "setting": "Day 17", "value": 464, "unit": "mm^3"},
      {"measurement": "Tumor Volume (mm^3)", "setting": "Day 17", "value": "590 mm^3 and 452 mm^3 and 510 mm^3 and 321 mm^3 and 448 mm^3"},
      {"measurement": "Tumor Volume (mm^3), Mean", "setting": "Day 21", "value": 551, "unit": "mm^3"},
      {"measurement": "Tumor Volume (mm^3)", "setting": "Day 21", "value": "649 mm^3 and 692 mm^3 and 581 mm^3 and 383 mm^3 and 451 mm^3"},
      {"measurement": "Tumor Volume (mm^3), Mean", "setting": "Day 24", "value": 672, "unit": "mm^3"},
      {"measurement": "Tumor Volume (mm^3)", "setting": "Day 24", "value": "748 mm^3 and 705 mm^3 and 822 mm^3 and 511 mm^3 and 571 mm^3"},
      {"measurement": "Tumor Volume (mm^3), Mean", "setting": "Day 28", "value": 858, "unit": "mm^3"},
      {"measurement": "Tumor Volume (mm^3)", "setting": "Day 28", "value": "1080 mm^3 and 888 mm^3 and 913 mm^3 and 623 mm^3 and 785 mm^3"},
      {"measurement": "Tumor Volume (mm^3), Mean", "setting": "Day 31", "value": 1194, "unit": "mm^3"},
      {"measurement": "Tumor Volume (mm^3)", "setting": "Day 31", "value": "1174 mm^3 and 1340 mm^3 and 1439 mm^3 and 1030 mm^3 and 989 mm^3"},
      {"measurement": "Tumor Volume (mm^3), Mean", "setting": "Day 35", "value": 1449, "unit": "mm^3"},
      {"measurement": "Tumor Volume (mm^3)", "setting": "Day 35", "value": "1650 mm^3 and 1656 mm^3 and 1496 mm^3 and 1236 mm^3 and 1208 mm^3"},
      {"measurement": "Tumor Volume (mm^3), Mean", "setting": "Day 37", "value": 1644, "unit": "mm^3"},
      {"measurement": "Tumor Volume (mm^3)", "setting": "Day 37", "value": "1652 mm^3 and 1963 mm^3 and 1828 mm^3 and 1196 mm^3 and 1580 mm^3"}
    ]}
  ]
}
